Tested on: Sprague-Dawley male rats
Experiment: Treadmill test using young rat (maximum running time)
Assay type: in vivo
Conditions: reduced coenzyme Q10 100 mg/kg, lipoic acid 30 mg/kg; for extension of the maximum running time (after the sample administration relative to before the administration), Average: Sprague-Dawley male rats 7 to 10 week old, oral in 0.5% CMC-Na, before vs three hours after administration; for extension of the maximum running time, significance: single agents: before vs after administration, combination: compared to control group, oral, three hours after administration
Protocol: Using Sprague-Dawley male rats (7 to 10 week old, n=20), anti-fatigue effects brought about by reduced coenzyme Q10 alone (about 2% of oxidized coenzyme Q10 included), lipoic acid alone, and combination use of reduced coenzyme Q10 and lipoic acid were evaluated with a treadmill. In the test, rats were run at a speed of 10 m/min using a treadmill apparatus (model NK-73-4 made by Natume Seisakusho Co., Ltd.), and the speed was increased stepwise, by 5 m/min every 3 min, and the time when the rats became unable to run (maximum running time) was measured.
As substances to be tested, 0.5% sodium carboxymethylcellulose (CMC-Na) aqueous solutions of reduced coenzyme Q10 (about 2% oxidized coenzyme Q10 included) or lipoic acid (α-lipoic acid (manufactured by Tokyo Chemical Industry Co., Ltd.)) were each prepared and the solutions were orally administered to rats at a dose of 100 mg/kg for reduced coenzyme Q10 or at a dose of 30 mg/kg for lipoic acid. Rats were divided into four groups of a solvent administered group, reduced coenzyme Q10 only administered group, lipoic acid only administered group, and a reduced coenzyme Q10 and lipoic acid combined group (reduced coenzyme Q10 and lipoic acid were administered almost simultaneously). The maximum running time was measured before and three hours after the administration and an extension of the maximum running time (after the sample administration relative to before the administration) was calculated. A 0.5% CMC-Na aqueous solution was administered to the control group.

Structure (SMILES) | extension of the maximum running time (after the sample administration relative to before the administration), Average [s] | extension of the maximum running time, significance
COc1c(O)c(C)c(C/C=C(\C)CC/C=C(\C)CC/C=C(\C)CC/C=C(\C)CC/C=C(\C)CC/C=C(\C)CC/C=C(\C)CC/C=C(\C)CC/C=C(\C)CCC=C(C)C)c(O)c1OC [Reduced coenzyme Q10, reduced coenzyme Q10] | 17.5 | no significant extension
O=C(O)CCCCC1CCSS1 (stereo not shown) [Lipoic acid, 1,2-dithioran-3-pentanoic acid] | 7.3 | no significant extension
